Source: patent publication US20160207994A1, “MODULATORS OF IL-12 AND/OR IL-23 FOR THE PREVENTION OR TREATMENT OF ALZHEIMER'S DISEASE” (UNIVERSITAT ZURICH, priority 2011, published 2016)

Legend:
[1] = system: IL-6, IL-1β IL-23 and TNF-a; settings: cited from earlier work
[2] = system: IL-12/p40; settings: cited from earlier work
[3] = system: isolated postnatal microglial cell cultures; assay: Cytokine gene expression in microglial cell cultures treated with synthetic Aβ1-42; format: cell-based; settings: 22.5 μg/ml
Method: Treatment of isolated postnatal microglial cell cultures with synthetic Aβ1-42 peptides (22.5 μg/ml) induced an almost 6-fold upregulation of IL-12/IL-23p40 after 24 h when compared to unstimulated controls (FIG. 1c).
Since both in human AD samples as well as in transgenic AD mice, microglia and macrophages surrounding Aβ-plaques are reported to be a major source of inflammatory cytokines, we FACS sorted myeloid brain cells of Alzheimer mice in order to better characterize this inflammatory component. Initially, we assessed the expression of IL-12, IL-23 and TNFα in 4-month-old APPPS1 animals and age matched non-transgenic littermates by quantitative PCR of the two cellular fractions obtained (CD45^+ CD11b^+ and CD45^− CD11b^−). […] In contrast, we observed a robust upregulation of IL-12/IL-23p40 and IL-23p19 in the double positive fraction containing microglia and brain macrophages of APPPS1 mice compared to age-matched littermate controls (FIG. 1b). […] To validate a potential link between IL-12 and IL-23 subunits and Aβ-pathology in APPPS1 transgenic animals—besides their impact in models of CNS autoimmune disease, IL-12/IL-23 have not been described to play a role in neurodegenerative diseases so far—as well as to test, whether inhibition of IL-12 and IL-23 subunits could alter disease progression in AD mice, genetic and applied experiments targeting IL-12 and IL-23 subunits in AD mice were performed.

CC/C=C\C[C@H](O)C(O)/C=C/C=C/C=C\C=C\[C@@H](O)C/C=C\CCC(=O)O (stereo partly drawn) [Resolvin D2, (7S, 17S)-7, 16, 17-trihydroxydocosa-4,8, 10, 12, 14, 19-hexaenoic acid]
levels of proinflammatory cytokines, namely IL-6, IL-1β IL-23 and TNF-a [1]: drastically reduces

CC[C@@H](O)/C=C/C=C\C[C@@H](O)/C=C/C=C/C=C\[C@@H](O)CCCC(=O)O [Resolvin E1, (5S, 12R, 18R)-5, 12, 18-trihydroxyicosa-6,8, 10, 14, 16-pentaenoic acid]
proinflammatory gene expression, i. a. IL-12/p40 [2]: dramatically decreases

Aβ1-42 peptides: synthetic Aβ1-42 peptides used to stimulate microglial cell cultures
upregulation of IL-23p19 [3]: substantial upregulation | upregulation of TNFα [3]: substantial upregulation | upregulation of IL-12/IL-23p40 over unstimulated controls ([3]; 24 h): ~6 fold
